Measured values as given in a melting point compilation (Tetko et al.; mined from patent text by program, amines drawn as free bases though some values may be those of a salt).

Compound | melting point [°C]
CCOC(=O)COc1ccnc2c(N)cccc12 | 94
CC(c1cccnn1)C(O)(Cn1cncn1)c1ccc(F)cc1F (stereo not given) | 134 to 135
NS(=O)(=O)c1cc(CCNC(=O)C=Cc2cccs2)ccc1OCC1CCCCO1 (stereo not given) | 106
BrCc1nc2cc3ccccc3cc2nc1CBr | 190 to 191
CCCCC(=N)NC(=O)Nc1cccc([N+](=O)[O-])c1 | 161 to 163
O=C(O)CCC(Cc1ccccc1Cl)(C(=O)C=Cc1cccc(Cl)c1)c1ccccc1 (stereo not given) | 170 to 172
COc1cc(C(=O)C#Cc2ccccc2)cc(OC)c1OC | 94 to 96
Cc1c(-c2ccccc2)oc2c(C(=O)OCCCBr)cccc2c1=O | 114 to 115
C[C@H](Nc1c(-c2c(F)cc(OCCCN(C)C)cc2F)c(Br)nc2ncnn12)C(F)(F)F | 40 to 42
Cc1cccc(Cl)c1OC1CN(C(c2ccccc2)c2ccccc2)C1 | 92 to 93
CS(=O)(=O)Nc1ccc([N+](=O)[O-])cc1C=C1CCCCC1 | 174 to 175
CCn1nc2ccc(Cl)nn2c1=O | 150 to 152
C#Cc1cn(C2CC(O)C(CO)O2)c(=O)n(C(=O)c2ccc(C)cc2)c1=O (stereo not given) | 176 to 179
CCc1nnc(-c2ccc(NC=O)cc2)n1-c1ccccc1OC | 250
Cc1ccccc1-c1nc(-c2ccccc2Cl)sc1-c1ccc(S(C)(=O)=O)cc1 | 156 to 157
CCCOc1ccccc1-c1nc2nc(NCC(F)(F)F)ncc2c(=O)[nH]1 | 214 to 216
O=C(O)CSCc1ccc([N+](=O)[O-])cc1 | 101 to 104
CC(O)(CCN)c1ccc(-c2ccc(F)cc2)cc1 (stereo not given) | 144 to 146
CN(C)C(=O)c1ccc(NC=O)cc1S(N)(=O)=O | 192 to 193
NS(=O)(=O)c1ccc2cc(O)c(O)cc2c1 | 218 to 228
O=C(Nc1ccc(Oc2ccnc(NCC3CCCO3)n2)c2ccccc12)c1cc(F)cc(N2CCOCC2)c1 (stereo not given) | 103 to 105
CCOC(=O)C1Cc2[nH]c3ccc(OC)cc3c2C1 (stereo not given) | 82 to 83
Cc1ccc(-c2ccc3c(c2)C=C(C(=O)Nc2ccc(C(O)c4ccccn4)cc2)CCO3)cc1 (stereo not given) | 215 to 217
Nc1cnc(-c2ccc(F)cc2)n(CC(=O)NC(Cc2ccccc2)C(=O)c2nc3ccccc3o2)c1=O (stereo not given) | 233 to 236
N#Cc1c(N2CCN(C(=O)c3cccs3)CC2)c2cccnc2n(Cc2ccc(F)cc2)c1=O | 271

Compound | melting point [°C]
COc1ccc(C(=O)N2c3ccccc3C(n3c4ccccc4c4ccccc43)=CC2C)cc1OC (stereo not given) | 184 to 185
CCCCOc1ccc(CCCOc2c(CC(=O)O)cccc2OC)c(Oc2ccc(C(F)(F)F)cn2)c1 | 69 to 70
O=c1cc(-c2cc[nH]n2)oc2ccccc12 | 143 to 144
CCOc1ccc(-c2ccc(Cl)nn2)c(OCC(O)CNC(C)(C)C)c1 (stereo not given) | 115 to 117
COc1ccc(C(=O)c2ccc3cc(OC)ccc3c2-c2ccccc2)cc1 | 122 to 124
N#Cc1cnn(-c2ccc(Cl)c(Cl)c2Cl)c1NC=O | 190 to 192
Clc1ccccc1NC(c1ccccc1)c1ccccc1 | 98
CC(C(=O)O)c1ccc(N)c(C(F)(F)F)c1 (stereo not given) | 73 to 75
CC(=O)N1CCCN(CC2=Nc3cccc4c(=O)[nH]nc(c34)N2)CC1 | 191 to 193
C(=CCN(CC1CCCCC1)CC1CCCCC1)CN(CC1CCCCC1)CC1CCCCC1 | 72 to 73
CN1Cc2c(-c3noc(CN4CC=CC4)n3)ncn2-c2ccccc2C1=O | 215 to 220
CCCCc1c(Cl)nc(N)nc1Cl | 169 to 170
CCc1c(C(=O)OC)c(C(=O)OC)c2n1-c1ccccc1C2 | 86 to 88
CNc1cc(F)ccc1C(=O)CS(=O)(=O)N(C)C | 120 to 124
Cc1nc2n(C)nc(C)n2c(=O)c1CCO | 170
Cc1ccc(-c2ccc3nnn(Cc4ccc5ncccc5c4)c3n2)s1 | 154 to 156
Nc1nc2cc(-c3ccccc3)ccc2c2c1ncn2CCCN1CCCC1=O | 201 to 204
CC1(c2cc(-c3nc4ccc(OCc5ccccc5)cc4[nH]3)ccc2OCc2ccccc2)CCCCC1 | 209
COc1cc(OC)cc(C(=O)N2CCc3cc(O)c(OC)cc3C2=O)c1 | 198 to 199
O=C(O)c1ccc(C(F)(F)F)nc1C(F)(F)F | 102 to 104
O=C(CCCCC(=O)Oc1ccc(N=Nc2ccccc2)cc1)Oc1ccc(N=Nc2ccccc2)cc1 | 176 to 177
Cc1cc(C)n(-c2nnc(-c3ccc(Cl)cc3)c(C)n2)n1 | 151 to 152
N#Cc1ccc(C=O)c(SCCc2ccccc2)c1 | 89
O=C(O)CCCCn1c(=O)c2cc(O)ccc2n(CCCCN2CCC(OC(c3ccccc3)c3ccccc3)CC2)c1=O | 234 to 236
Cc1ccc(-c2nc(C(=O)O)c(C)s2)s1 | 160 to 161

Compound | melting point [°C]
COc1cc(C(=O)N2CCC(CCN3CCC(C(=O)c4nc5ccccc5[nH]4)CC3)(c3ccccc3)C2)cc(OC)c1OC (stereo not given) | 108 to 111
Cc1ccc2c(c1)C(OC(C)C)=C(C(=O)O)S2=O (stereo not given) | 184 to 187
c1cc(-n2cccc2)cc(-n2cnc3cc(-c4ccco4)ccc32)c1 | 137 to 139
Cc1c(-c2cccnc2)n(Cc2ccc(C#N)cc2)c2ccccc12 | 127 to 129
CNC(=O)c1ccc(C=CC(=O)OC)cc1 | 210
S=c1cc(-c2cnccn2)ss1 | 196
CS(=O)(=O)c1ncc(F)c(NCc2ccccc2F)n1 | 105 to 107
Nc1nc(C(F)(F)C(F)(F)F)nn1-c1c(Cl)cc(C(F)(F)F)cc1Cl | 181 to 183
CCOC(=O)c1cc(C(=O)Nc2ccccc2OC(C)=O)cc(Cl)c1O | 163 to 166
CC1CCN(Cc2cccc(OCCCNc3nc(N)nn3C)c2)CC1 | 133 to 134
Cc1n[nH]c(C)c1Oc1cc(Cl)cc(Cl)c1 | 85 to 87
CN1CCN2c3ccccc3C(O)c3ccccc3C2C1 (stereo not given) | 137 to 138
CC(C)[C@H](CC1C(=O)OC(C)(C)OC1=O)NC(=O)OC(C)(C)C | 108 to 112
CN(C)C=CC(=O)c1ccncc1 | 114 to 116
CCCC(=O)Oc1ccc(-c2ccc(C#N)cc2)cc1 | 77.9 to 78.2
CCOCCOCCn1c(C=O)cc2c1CC(c1ccccc1Cl)C1C(=O)NC(=O)C21 (stereo not given) | 190 to 193
COC(=S)Cc1ccc(C(=O)CN2CCN(c3ccncc3)CC2)cc1 | 109 to 110
CC(=O)ON(C)C(=O)CCc1cc(-c2ccc(Cl)cc2)n(-c2nc3c(Cl)cccc3s2)n1 | 159 to 160
CCCc1c2nc(C(=O)OC)cc(Br)c2cc2c(=O)cc(C(=O)OC)oc12 | 179 to 180
CC(C)(C)OC(=O)N1CCC(C#N)(c2ccc(Cl)c(Cl)c2)CC1 | 142 to 145
CS(=O)(=O)Oc1ccc([C@@H]2CCNC(=O)[C@H]2c2ccccc2)cc1 (relative stereo) | 199
CNC(Cc1ccc(Cl)nc1)=C(N)C(=O)C(F)(F)F | 114
CC(=O)NC1CCN(c2nc(Nc3ccc(F)cc3F)c(C(=O)O)cc2F)C1 (stereo not given) | 232 to 234
C=C(C)CNC(=O)N1CC(Oc2ccc(C(F)(F)F)cc2)C1 | 101 to 102
CCCCOC(=O)C1CC(n2cnc3c(N)ncnc32)C(O)C1O (stereo not given) | 173 to 175

Compound | melting point [°C]
CCCCCCNC(=O)c1cnc(Cl)nc1 | 101 to 102
COc1ccc2c(c1)CCC1C2CCC2(C)C(NCCCCCCNc3ccc([N+](=O)[O-])cc3[N+](=O)[O-])CCC12 (stereo not given) | 90 to 92
Cc1cccc(CN2CCN(C(c3ccc(Cl)cc3)c3cccc(OCC(=O)O)c3)CC2)c1 (stereo not given) | 114 to 120
COc1cc(C(C)=O)ccc1OCCN1CCC(C(O)(c2ccc(F)cc2)c2ccc(F)cc2)CC1 | 131 to 135
Cc1ccccc1Oc1cccc2c1OC(=O)C2C (stereo not given) | 45 to 46
CCC(CCCN)Nc1cc(OC)c(OC)c2c(C)ccnc12 (stereo not given) | 136 to 137
CNC(=O)CC(SC(=O)c1ccccc1)C(CC(C)C)C(=O)NC(Cc1ccc(OC)cc1)C(=O)NC (stereo not given) | 140 to 144
CNC(=O)Cn1c(=O)c(=O)[nH]c2cc(C(F)(F)F)c(-n3cccc3)cc21 | > 250
CSC1=C(c2ccc(O)cc2)C(=O)c2cc(O)cc(O)c21 | 120 to 123
O=C(CC1C2=C(CCCC2)C(=O)N1c1ccc(Cl)cc1)N1CCCCC1 (stereo not given) | 120 to 122
O=C(Nc1ccccc1)O[C@H]1COC(c2cc3ccccc3[nH]2)=N[C@@H]1c1ccccc1 (racemic) | 166
CC(C)=CCCC(C)C1CCC2C3CC=C4CC(O)CC(O)C4(C)C3CCC12C (stereo not given) | 137 to 139
CCn1c(=O)c(C(=O)NCCOC)c(O)c2ccc(C)nc21 | 118 to 120
COC(=O)c1ccc(C(=O)NS(=O)(=O)c2ccc(CCNC(=O)c3cc(Cl)ccc3OC)cc2)cn1 | 233
CCCn1c(C)nc(N2CCc3ccccc3CC2)c([N+](=O)[O-])c1=O | 164 to 170
CSCCC(=O)Nc1sc(-c2cccnc2)nc1SC | 72 to 74
Cc1onc(-c2ccc(Cl)cc2)c1CO | 94 to 95
CC1(c2ccc(CNC(=O)CCl)cc2)Cc2cc(OCC(=O)O)c(Cl)c(Cl)c2C1=O (stereo not given) | 138 to 141
CC12CC(N3CCCCC3)C(O)CC1CCC1C2CCC2(C)C(O)C(N3CCC4(CC3)OCCO4)CC12 (stereo not given) | 183 to 185
COc1ccc(-c2ccc(COc3cccc4cc(NS(=O)(=O)C(F)(F)F)ccc34)c(F)c2)cc1 | 108 to 111
CCCNC(=O)C1(CCCCc2ccc(N3Cc4ccccc4C3=O)cc2)c2ccccc2-c2ccccc21 | 147 to 148
Cc1nc2ccc(S(=O)(=O)n3c(CCCC(=O)O)cc4nc(Cl)ccc43)cc2s1 | 184
NC1(CF)CCCNC1=O (stereo not given) | 132
C/C(=C\c1ccc(OCCN2CCOCC2)cc1)c1ccc2c(c1)C(C)(C)CCC2(C)C | 107 to 109
CCc1ccc2c(O)c(C(=O)O)cnc2c1 | 175 to 178
